Measured values published in PubChem BioAssay AID256 (DTP/NCI, 2004).
Where “and” joins values, the source holds several entries; their conditions need not be identical. Equal entries are not always repeated. Toxic doses and inconclusive results are not listed.

Tested on: CD2F1 mice, L1210 leukemia ip, survival T/C
Test: NCI In Vivo Anticancer Drug Screen. Data for tumor model L1210 Leukemia (intraperitoneal) in CD2F1 (CDF1) mice
Conditions: endpoint: mean survival time, higher = longer survival
Method in brief: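 Mice carrying a transplanted tumor received test compound or vehicle alone. The value is the measurement in the treated group divided by that in the vehicle-treated control group.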

[1] = dose: 50.0 mg/kg/injection, schedule: Q04DX003 (ip), vehicle: saline
[2] = dose: 100.0 mg/kg/injection, schedule: Q04DX003 (ip), vehicle: saline
[3] = dose: 200.0 mg/kg/injection, schedule: Q04DX003 (ip), vehicle: saline
[4] = dose: 100.0 mg/kg/injection, schedule: Q04DX003 (ip), vehicle: saline with Tween-80
[5] = dose: 200.0 mg/kg/injection, schedule: Q04DX003 (ip), vehicle: saline with Tween-80
[6] = dose: 400.0 mg/kg/injection, schedule: Q04DX003 (ip), vehicle: saline with Tween-80
[7] = dose: 100.0 mg/kg/injection, schedule: Q01DX001 (ip), vehicle: saline
[8] = dose: 200.0 mg/kg/injection, schedule: Q01DX001 (ip), vehicle: saline
[9] = dose: 400.0 mg/kg/injection, schedule: Q01DX001 (ip), vehicle: saline
[10] = dose: 100.0 mg/kg/injection, schedule: Q01DX009 (ip), vehicle: saline with Tween-80
[11] = dose: 200.0 mg/kg/injection, schedule: Q01DX009 (ip), vehicle: saline with Tween-80
[12] = dose: 50.0 mg/kg/injection, schedule: Q01DX009 (ip), vehicle: saline with Tween-80
[13] = dose: 50.0 mg/kg/injection, schedule: Q01DX009 (ip), vehicle: saline
[14] = dose: 100.0 mg/kg/injection, schedule: Q01DX009 (ip), vehicle: saline
[15] = dose: 200.0 mg/kg/injection, schedule: Q01DX009 (ip), vehicle: saline
[16] = dose: 400.0 mg/kg/injection, schedule: Q04DX003 (ip), vehicle: saline
[17] = dose: 25.0 mg/kg/injection, schedule: Q01DX009 (ip), vehicle: saline with Tween-80

## COC1OC2COC(C)(c3ccccc3)OC2C(O)C1[NH-].COC1OC2COC(C)(c3ccccc3)OC2C(O)C1[NH-].[Cl][Pt+2][Cl] (stereo not drawn)
dose: 12.5 mg/kg/injection, schedule: Q04DX003 (ip), vehicle: saline
  T/C: 93 % of control
dose: 25.0 mg/kg/injection, schedule: Q04DX003 (ip), vehicle: saline
  T/C: 96 % of control
[1]
  T/C: 96 % of control
[2]
  T/C: 95 % of control
[3]
  T/C: 102 % of control

## Nc1ccc([N+](=O)[O-])cn1
dose: 75.0 mg/kg/injection, schedule: Q01DX009 (ip), vehicle: saline with Tween-80
  T/C: 94 % of control
[4]
  T/C: 107 % of control
dose: 150.0 mg/kg/injection, schedule: Q01DX009 (ip), vehicle: saline with Tween-80
  T/C: 87 % of control
[5]
  T/C: 103 % of control
dose: 300.0 mg/kg/injection, schedule: Q01DX009 (ip), vehicle: saline with Tween-80
  T/C: 93 % of control
[6]
  T/C: 96 % of control

## O=P(O)(O)CP(=O)(O)O.[NH-]CC[NH-].[NH-]CC[NH-].[Pd+2].[Pd+2]
dose: 3.13 mg/kg/injection, schedule: Q04DX003 (ip), vehicle: distilled water + Tween-80
  T/C: 95 % of control
dose: 6.25 mg/kg/injection, schedule: Q04DX003 (ip), vehicle: distilled water + Tween-80
  T/C: 106 % of control
dose: 12.5 mg/kg/injection, schedule: Q04DX003 (ip), vehicle: distilled water + Tween-80
  T/C: 95 % of control
dose: 25.0 mg/kg/injection, schedule: Q04DX003 (ip), vehicle: distilled water + Tween-80
  T/C: 97 % of control
dose: 50.0 mg/kg/injection, schedule: Q04DX003 (ip), vehicle: distilled water + Tween-80
  T/C: 98 % of control
dose: 100.0 mg/kg/injection, schedule: Q04DX003 (ip), vehicle: distilled water + Tween-80
  T/C: 106 % of control

## COc1cc2c(ccc3c4cc(OC)c(OC)cc4c[n+](C)c23)cc1O
dose: 80.0 mg/kg/injection, schedule: Q01DX009 (ip), vehicle: saline
  T/C: 150 % of control
dose: 160.0 mg/kg/injection, schedule: Q01DX009 (ip), vehicle: saline with Tween-80
  T/C: 150 % of control
dose: 160.0 mg/kg/injection, schedule: Q01DX009 (ip), vehicle: saline
  T/C: 174 % of control
dose: 320.0 mg/kg/injection, schedule: Q01DX009 (ip), vehicle: saline with Tween-80
  T/C: 87 % of control
dose: 320.0 mg/kg/injection, schedule: Q01DX009 (ip), vehicle: saline
  T/C: 86 % of control

## C=COCCSCC
[1]
  T/C: 98 % of control
[7]
  T/C: 98 % of control
[2]
  T/C: 98 % of control
[8]
  T/C: 97 % of control
[3]
  T/C: 104 % of control
[9]
  T/C: 101 % of control

## CC(C)(C)Sc1cccnc1 (tested in a mixture with another compound)
[10]
  T/C: 92 % of control
[11]
  T/C: 93 % of control

## Cc1ccc(S(=O)(=O)N(C)C)cc1NC1=NCCO1
dose: 50.0 mg/kg/injection, schedule: Q04DX003 (ip), vehicle: saline with Tween-80
  T/C: 95 % of control
[4]
  T/C: 95 % of control
[5]
  T/C: 90 % of control
[6]
  T/C: 90 % of control

## Nc1nc2c(c(=O)[nH]1)N(C(=O)NCCCl)C(CNc1ccc(C(=O)NC(CCC(=O)O)C(=O)O)cc1)CN2 (stereo not drawn)
dose: 100.0 mg/kg/injection, schedule: Q01DX001 (ip), vehicle: sodium bicarbonate
  T/C: 94 % of control
dose: 200.0 mg/kg/injection, schedule: Q01DX001 (ip), vehicle: sodium bicarbonate
  T/C: 100 % of control
dose: 400.0 mg/kg/injection, schedule: Q01DX001 (ip), vehicle: sodium bicarbonate
  T/C: 97 % of control

## CN(C)S(=O)(=O)/C=C(\Cl)c1ccccc1
dose: 100.0 mg/kg/injection, schedule: Q01DX001 (ip), vehicle: saline with Tween-80
  T/C: 97 % of control
dose: 200.0 mg/kg/injection, schedule: Q01DX001 (ip), vehicle: saline with Tween-80
  T/C: 100 % of control
dose: 400.0 mg/kg/injection, schedule: Q01DX001 (ip), vehicle: saline with Tween-80
  T/C: 104 % of control

## CC1C2CCC(C2)C1OC(=O)c1ccccc1C(=O)O (stereo not drawn) (tested in a mixture with another compound)
[12]
  T/C: 107 % of control
[10]
  T/C: 102 % of control and 93 % of control
[4]
  T/C: 95 % of control
[11]
  T/C: 95 % of control
[5]
  T/C: 95 % of control
dose: 400.0 mg/kg/injection, schedule: Q01DX009 (ip), vehicle: saline with Tween-80
  T/C: 94 % of control

## C=C1C(=O)OC2CCCC/C=C\C12 (stereo not drawn)
[13]
  T/C: 100 % of control
[14]
  T/C: 102 % of control
[15]
  T/C: 97 % of control

## COc1cc2cc3cc4cc(OC)c(OC)cc4c(C)[n+]3cc2cc1OC (tested in a mixture with another compound)
dose: 12.5 mg/kg/injection, schedule: Q01DX009 (ip), vehicle: suspension in saline
  T/C: 109 % of control
dose: 25.0 mg/kg/injection, schedule: Q01DX009 (ip), vehicle: suspension in saline
  T/C: 110 % of control
dose: 50.0 mg/kg/injection, schedule: Q01DX009 (ip), vehicle: suspension in saline
  T/C: 114 % of control
dose: 100.0 mg/kg/injection, schedule: Q01DX009 (ip), vehicle: suspension in saline
  T/C: 107 % of control
dose: 200.0 mg/kg/injection, schedule: Q01DX009 (ip), vehicle: suspension in saline
  T/C: 110 % of control

## COC(=O)C/C(=C/C=C1/C(=O)ON=C1C)c1c(C)[nH]oc1=O
[14]
  T/C: 87 % of control
[2]
  T/C: 101 % of control
[15]
  T/C: 92 % of control
[3]
  T/C: 106 % of control
dose: 400.0 mg/kg/injection, schedule: Q01DX009 (ip), vehicle: saline
  T/C: 87 % of control
[16]
  T/C: 108 % of control

## CCCCCCCCC[n+]1ccc(C#N)cc1
dose: 9.38 mg/kg/injection, schedule: Q01DX001 (ip), vehicle: other
  T/C: 103 % of control
dose: 18.75 mg/kg/injection, schedule: Q01DX001 (ip), vehicle: other
  T/C: 101 % of control
dose: 37.5 mg/kg/injection, schedule: Q01DX001 (ip), vehicle: other
  T/C: 103 % of control

## Oc1cccc(O)c1
[13]
  T/C: 98 % of control
[14]
  T/C: 95 % of control
[15]
  T/C: 101 % of control

## Cc1ccccc1-n1c(O)c(N=Nc2ccccc2)c(=O)n(-c2ccccc2)c1=S
dose: 50.0 mg/kg/injection, schedule: Q04DX003 (ip), vehicle: Klucel (hydroxypropylcellulose) (HPC)
  T/C: 93 % of control
dose: 100.0 mg/kg/injection, schedule: Q04DX003 (ip), vehicle: Klucel (hydroxypropylcellulose) (HPC)
  T/C: 94 % of control
dose: 200.0 mg/kg/injection, schedule: Q04DX003 (ip), vehicle: Klucel (hydroxypropylcellulose) (HPC)
  T/C: 104 % of control

## O=C(O)/C=C/C(=O)Nc1cccc2c1C(=O)c1ccccc1-2
[17]
  T/C: 97 % of control
[12]
  T/C: 94 % of control
[10]
  T/C: 102 % of control

## COc1ccc2c(c1)CCc1cn[nH]c1-2
[7]
  T/C: 101 % of control
[2]
  T/C: 106 % of control
[8]
  T/C: 103 % of control
[3]
  T/C: 106 % of control
[9]
  T/C: 98 % of control
[16]
  T/C: 100 % of control

## CN(C)c1ccc(-c2cc(C(=O)O)c3cc(I)ccc3n2)c(Cl)c1
dose: 75.0 mg/kg/injection, schedule: Q01DX009 (ip), vehicle: saline
  T/C: 100 % of control
dose: 75.0 mg/kg/injection, schedule: Q04DX003 (ip), vehicle: saline
  T/C: 92 % of control
dose: 150.0 mg/kg/injection, schedule: Q01DX009 (ip), vehicle: saline
  T/C: 94 % of control
dose: 150.0 mg/kg/injection, schedule: Q04DX003 (ip), vehicle: saline
  T/C: 93 % of control
dose: 300.0 mg/kg/injection, schedule: Q01DX009 (ip), vehicle: saline
  T/C: 98 % of control
dose: 300.0 mg/kg/injection, schedule: Q04DX003 (ip), vehicle: saline
  T/C: 110 % of control

## CS(=O)(=O)c1nnc(S(C)(=O)=O)s1
dose: 3.0 mg/kg/injection, schedule: Q01DX009 (ip), vehicle: saline sonified
  T/C: 104 % of control
dose: 6.0 mg/kg/injection, schedule: Q01DX009 (ip), vehicle: saline sonified
  T/C: 102 % of control
dose: 12.0 mg/kg/injection, schedule: Q01DX009 (ip), vehicle: saline sonified
  T/C: 113 % of control
dose: 12.5 mg/kg/injection, schedule: Q04DX003 (ip), vehicle: saline sonified
  T/C: 104 % of control

## N#CC1(Cc2ccc(OCc3ccccc3)c(OCc3ccccc3)c2)c2ccccc2C=CN1C(=O)c1ccccc1 (stereo not drawn)
[17]
  T/C: 103 % of control
[12]
  T/C: 100 % of control
[10]
  T/C: 91 % of control

## O=c1ccnc(C(F)(F)F)[nH]1
[14]
  T/C: 101 % of control
[15]
  T/C: 95 % of control
